Laboratory results taken from patent US10443018B2, “Phenyl based compounds substituted with aldehyde moieties and their use in perfumery” (GIVAUDAN SA, priority 2014, dated 2019).

Assays:
[1] = tested on: Cryopreserved hepatocytes from male rats (Sprague Dawley); experiment: In vitro metabolism study in rat hepatocytes in suspension (GC-MS); details: for Residual conc.: male, Sprague Dawley, rat, 4 h, 100 μM
Protocol: In order to study in vitro metabolism in rat hepatocytes, Lilial™ and compounds of the present invention may be incubated in the presence of rat hepatocytes in suspension. Reduction in the concentration of Lilial™ and the compounds of the present invention and formation of any of the corresponding benzoic acid derivatives may be analysed by GC-MS.
Cryopreserved hepatocytes from male rats (Sprague Dawley; Lifetechnologies) were defrozen, washed in Cyropreserved Hepatocytes Recovery Medium (CHRM; Lifetechnologies) and suspended in Williams E Medium (WEM; Lifetechnologies). Lilial™, or the compounds of the present invention (final concentration: 100 μM) were added to the cells (1×10^6 viable cells/ml) and suspensions were incubated up to 4 hours at 37° C. on a shaker in duplicate. Metabolism of testosterone was monitored as positive control. Decrease of the test compounds and formation of the corresponding benzoic acid derivative was determined by GC-MS analysis of methyl esters formed after derivatisation with trimethylsilyl diazomethane (Sigma-Aldrich) in methanol. The test compounds react with diazomethane yielding a methyl ketone which was used for the quantification of Lilial™ and the compound of formula (I). Metabolism was stopped with ice cold 1 M HCl, samples were extracted with tert-butyl methyl ether (MTBE) and analysed by GC-MS. Incubations containing testosterone as control were also stopped with ice cold 1 M HCl, centrifuged to separate the cells, filtrated and the decrease of testosterone analysed by LC-MS.

primates = details: cited from earlier work
[2] = tested on: reproductive organs of male rats; details: rat, in vivo; cited from earlier work
[3] = tested on: reproductive organs of dogs; details: dog, in vivo; cited from earlier work
mice = details: mouse, in vivo; cited from earlier work
guinea-pigs = details: guinea pig, in vivo; cited from earlier work

Q: For `Cc1ccc(CCC=O)c(CC(C)C)c1`, which Residual conc. [1] is on record?
A: 0 µM

Q: For `Cc1cc(CCC=O)cc(CC(C)C)c1` [Compound 1, 3-(3-Isobutyl-5-methylphenyl)propanal], which Residual conc. [1] is on record?
A: 1.5 µM

Q: Which results are given for `CC(C=O)Cc1ccc(C(C)(C)C)cc1` (stereo not drawn) [Lilial, 3-(4-tert-butylphenyl)-2-methylpropanal]?
A: Residual conc. [1]: 0 µM; effects in toxicity studies (primates): No effects; toxic effects on the reproductive organs [2]: toxic effects; toxic effects on the reproductive organs [3]: toxic effects; effects in toxicity studies (mice): No effects; effects in toxicity studies (guinea-pigs): No effects

Q: Which “decrease of testosterone (positive control)” value ([1]; rat hepatocytes, LC-MS) does the source give for `C[C@]12CC[C@H]3[C@@H](CCC4=CC(=O)CC[C@@]43C)[C@@H]1CC[C@@H]2O` [testosterone] here?
A: rapid decrease
